{
  "source": "patent US10359432B2",
  "about": "“Methods for detecting antibodies” (The Regents of the University of California, priority 2008, dated 2019)",
  "key": {"[1]": {"tested_on": "primary CLL cells", "assay": "Peptide inhibition of CLL cell staining by labeled mAb, flow cytometry", "type": "cell-based, human", "conditions": "for Staining of primary CLL cells by fluorescently labeled mAb: no peptide", "experimental": "The shaded histogram represents staining with labeled human IgG.\nAfter informed consent was obtained per the Declaration of Helsinki, blood samples were collected from patients at the University of California, San Diego (UCSD) Medical Center who satisfied diagnosis and immunophenotypic criteria for common B-cell CLL.\nSubsequently, cells were washed two times with 100 μl FACS-wash (PBS, 5% FCS and 0.5% sodium azide) and fixed with 100 μl with 3.7% formaldehyde in PBS.\nThere was no effect on the binding activity of the other mAb (data not shown)."}, "[2]": {"target": "alemtuzumab", "assay": "Antibody-peptide binding kinetics, SkiPro interferometer, whole mAb", "conditions": "whole molecule alemtuzumab", "source_text": "(§1) FIGS. 7A to 7D include graphical illustrations showing the kinetics of antibody-peptide binding. Biotinylated peptides were captured onto streptavidin coated nanoporous surfaces. The binding of the mAb or their Fab fragments was monitored on a SkiPro™ interferometer. The binding curves were globally fit to a single binding site association/dissociation model to derive Kon, Koff, and Kd values.\n(§2) Kinetics of antibody-peptide binding were studied using SkiPro™ Biomolecular Interaction technology platform on a SkiPro™ interferometer equipped with a 2-channel flow cell and an autosampler (Silicon Kinetics Inc. San Diego, Calif.). All reagents were purchased from Sigma-Aldrich (St. Louis, Mo.). All peptides were incubated with oxidizing agent Sodium Tetrathionate at 10 mM in PBS for 1 hour immediately before binding experiments. Biotinylated peptides were diluted to 5 μM in PBS/0.05% BSA and immobilized on Streptavidin-coated SkiSensor™ Biochips for 10 minutes at 4 μl/min flow rate. […] Concentration series of antibodies and antibody Fab fragments were prepared as twofold dilutions in PBS/0.05% BSA. Binding was carried out for 10 minutes followed by 20 minutes dissociation. For all sensorgrams reference channel data was subtracted from the sample channel. The resulting multi-concentration series of binding curves were globally fit to a single binding site association/dissociation model.\n(§3) Biotinylated peptides were used for kinetic binding measurements using nano-pore optical interferometry (FIGS. 7A-7D)."}, "[3]": {"target": "Fab fragments of alemtuzumab", "assay": "Antibody-peptide binding kinetics, SkiPro interferometer, Fab fragments", "experimental": "as §1\nAntibodies were prepared as follows. Alemtuzumab (Genzyme, Cambridge, Mass.) and rituximab (Genentech, San Francisco, Calif.) were obtained from the UCSD Cancer Center pharmacy. The antibodies were fluorescently labeled using the Zenon® R-Phycoerythrin Human IgG labeling kit, Zenon® Alexa Fluor® 488 Human IgG labeling and Zenon® Alexa Fluor® 488 protein labeling kits (Invitrogen, Carlsbad, Calif.). For kinetic studies, Fab fragments of each mAb were prepared by papain digestion using a Fab preparation kit (Thermo Fisher Scientific, Rockford, Ill.) as per manufacturers instructions.\nas §2, §3"}},
  "note": "Bridge positions count the residues as written; N and C are the ends. Ends that are not written are not given here. * marks the point of attachment. Biotin = O=C1N[C@H]2[C@H](CS[C@H]2CCCCC(=O)*)N1",
  "data": [
    {"substance": "alemtuzumab [reference compound]", "values": [
      {"measurement": "Staining of primary CLL cells by fluorescently labeled mAb", "setting": "[1]", "value": "robust staining"}
    ]},
    {"substance": "ACPYSNPSLCGGK (ACPYSNPSLCGGK(Biotin); disulfide 2-10 (inferred)) [pRTX-10B]", "values": [
      {"measurement": "CLL cell labeling by fluorescently labeled rituximab with peptide added", "setting": "[1]; peptide at 25,000 molar excess", "value": "largely abrogated"}
    ]},
    {"substance": "ACGSLSPSSCGGK (ACGSLSPSSCGGK(Biotin); disulfide 2-10 (inferred)) [pCp-1B]", "values": [
      {"measurement": "CLL cell labeling by fluorescently labeled alemtuzumab with peptide added", "setting": "[1]; peptide at 25,000 molar excess", "value": "largely abrogated"}
    ]},
    {"substance": "rituximab [reference compound]", "values": [
      {"measurement": "Staining of primary CLL cells by fluorescently labeled mAb", "setting": "[1]", "value": "weak"}
    ]},
    {"substance": "ACGSLSPSSC [Cp-1]", "values": [
      {"measurement": "Kd", "setting": "[2]", "value": 163, "unit": "nM"},
      {"measurement": "Koff", "setting": "[2]", "value": 0.00132, "unit": "s⁻¹"},
      {"measurement": "Kon", "setting": "[2]; biotinylated peptide on streptavidin surface", "value": 8130, "unit": "M⁻¹ s⁻¹"},
      {"measurement": "Kd", "setting": "[3]", "value": 2050, "unit": "nM"},
      {"measurement": "Koff", "setting": "[3]", "value": 0.00505, "unit": "s⁻¹"},
      {"measurement": "Kon", "setting": "[3]", "value": 2460, "unit": "M⁻¹ s⁻¹"}
    ]}
  ]
}
